# Reference: patent US10060933B2, “Methods for diagnosis and treatment of amyotrophic lateral sclerosis based on an increased level of interaction between TDP-43 polypeptide and NF-KB P65 polypeptide” (UNIVERSITE LAVAL, priority 2011, dated 2018)
# Tests used:
# [1] = tested on: NF-κB (phospho-p65^Ser536); assay: Western blot of phospho-p65^Ser536 in challenged neuronal cells; assay type: cell-based, mouse; conditions: glutamate and conditioned media challenged neuronal cells; WA
# Source text: […] is known to modulate p53-p38MAPK dependent apoptosis in neurons, when treated with DNA damage inducing chemicals like camptothecin^34, glutamate excitotoxicity^35 or general bystander mediated killing of neurons by microglia^14. To assess the potential contribution of NF-κB to the death of TDP-43 overexpressing neurons exposed to toxic injury, we prepared cultures of primary cortical neurons and microglia from transgenic mice overexpressing TDP-43^wt or TDP-43 mutants. […] The LDH cytotoxicity was determined 24 hrs later (FIG. 14A). […] We then incubated cortical neurons with the conditioned media from primary microglial culture, which were challenged with LPS at a concentration of 50 ng/ml of media. […] As WA might exert multiple pharmacological actions, we tested a more specific molecular approach for inhibiting NF-κB. Since, activation of NF-κB requires its dissociation from the inhibitory molecule, IκB, we expressed a stable mutant super-repressive form of IκB-α (Ser 32/Ser36-to-alanine mutant; IκB^SR) and evaluated its effects on neuronal death. Cultured cortical neurons from TDP-43 transgenic and non-transgenic mice were transfected with a plasmid construct, expressing IκB^SR, and exposed to either 10 μM glutamate for 30 min or incubated in conditioned media from LPS-stimulated microglia of same genotype. […]
# peripherin = assay: Peripherin immunofluorescence and immunoblot of spinal cord; assay type: in vivo, mouse; conditions: TDP-43^Wt mice, treated vs untreated
# Method: To study the in vivo effect of NF-κB inhibition on disease progression, we injected TDP-43^wt; GFAP-luc double transgenic mice with 3 mg/kg body weight of WA twice a week for 10-weeks starting at 30-weeks. […] We used TDP-43^wt; GFAP-luc double transgenic mice because the reporter luciferase (luc) allowed the longitudinal and non-invasive biophotonic imaging with CCD camera of the GFAP promoter activity which is a target of activated NF-κB. To analyse the spatial and temporal dynamics of astrocytes activation/GFAP induction in TDP-43 mouse model, we performed series of live imaging experiments. […] The downregulation of GFAP promoter activity was further confirmed in these mice using GFAP immunofluorescence of spinal cord sections of TDP-43^Wt mice (both drug-treated and untreated) (FIG. 8F). […] Down-regulation of GFAP along with reduction in active p65 levels in withaferin treated mice prompted us to analyse behavioural changes in these mice. […] The withaferin treated mice also had 40% reduction in the number of partially denervated neuromuscular junction (NMJ) (FIGS. 8E&G).
# Snap frozen spinal cords of mice were harvested with lysis buffer containing 25 mM HEPES-NaOH (pH 7.9), 150 mM NaCl, 1.5 mM MgCl2, 0.2 mM EDTA, 0.5% Triton-X-100, 1 mM dithiothreitol and protease inhibitor cocktail. Protein samples were estimated using Bradford method. The lysate was incubated with 50 μl of Dynabeads (Protein-G beads, Invitrogen), anti-TDP-43 polyclonal (ProteinTech, Chicago, Ill., USA) or anti-peripherin polyclonal antibody (AB1530, Chemicon, Billerica, Mass., USA). After subsequent washing, the beads were incubated overnight at 4° C. with […] of tissue lysate. Antibody-bound complexes were eluted by boiling in Laemmli sample buffer. Supernatants were resolved by 10% SDS-PAGE and transferred on nitrocellulose membrane (Biorad, Hercules, Calif., USA). The membrane was incubated with anti-ubiquitin antibody (1:1000, Abcam, Cambridge, Mass., USA). For other western blot assays, blots were incubated with primary antibodies against human monoclonal TARDBP antibody (1:1000, Abnova, clone E2-D3), peripherin polyclonal (1:1000, Chemcion—AB1530), peripherin monoclonal (1:500, Chemicon, AB1527), Clone NR4 for NF-L (1:1000, Sigma), Clone NN18 for NF-M (1:1000, Millipore) and Clone N52 for NF-H (1:1000, Millipore). Immunoreactive proteins were then visualized by chemiluminescence (Perkin and Elmer, Santa Clara, Calif., USA) as described previously (Dequen et al., 2008). Actin (1:10000, Chemicon) is used as a loading control.
# 4% Paraformaldehyde (PFA) fixed spinal cord and brain sections of mice were sectioned and fixed on slides. For immunohistochemistry, tissues were treated with hydrogen-peroxide solution before permeabilisation. […]
smiles,measurement,setting,value
CC1=C(CO)C(=O)O[C@@H]([C@@H](C)[C@H]2CC[C@H]3[C@@H]4C[C@H]5O[C@]56[C@@H](O)C=CC(=O)[C@]6(C)[C@H]4CC[C@]23C)C1 [Withaferin A],levels of phospho-p65^Ser536 (inhibition of NF-κB),[1],reduced levels
same,"peripherin in spinal cord (immunofluorescence, polyclonal antibody)",peripherin; listed as Withaferin,reduced levels of peripherin
same,"peripherin levels in spinal cord (western blot / immunoblot, monoclonal antibody)",peripherin; listed as Withaferin,reduced levels of peripherin
same,"peripherin in spinal cord (immunofluorescence, polyclonal antibody)",peripherin; listed as withaferin,reduction of peripherin aggregates
same,"peripherin levels in spinal cord (western blot / immunoblot, monoclonal antibody)",peripherin; listed as withaferin,reduced
